# Reference: ChEMBL document CHEMBL1201862, “PubChem BioAssay data set” (2004)
#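 Interpolation was linear, between the two tested concentrations surrounding the appropriate level; five concentrations were tested over 48 hours in 96-well plates. GI50: concentration for 50% inhibition of growth.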 Activity calls are given as the source filed them. Cut-off read from the data, not from the text of the source: active = GI50 up to about 1.1 µM and inactive = higher.
# Columns and labels:
# Test in all cases: NCI-60 cell line screen, 48 h
# HT-29 = test system: HT-29
# NCI-H522 = test system: NCI-H522
# MCF7 = test system: MCF7
# HCT-15 = test system: HCT-15
# Malme-3M = test system: Malme-3M
# A549 = test system: A549
# SK-MEL-5 = test system: SK-MEL-5
# NCI-H23 = test system: NCI-H23
# OVCAR-8 = test system: OVCAR-8
# OVCAR-4 = test system: OVCAR-4
# SF-539 = test system: SF-539
# A498 = test system: A498
# MDA-MB-231 = test system: MDA-MB-231
# SR = test system: SR
# IGROV-1 = test system: IGROV-1
# CCRF-CEM = test system: CCRF-CEM
# NCI-H226 = test system: NCI-H226
# NCI-H460 = test system: NCI-H460
# HL-60 = test system: HL-60
# MDA-MB-435 = test system: MDA-MB-435
# SN12C = test system: SN12C
# UACC-257 = test system: UACC-257
# Hs-578T = test system: Hs-578T
# SF-268 = test system: SF-268
# 786-0 = test system: 786-0
# SK-MEL-2 = test system: SK-MEL-2
# OVCAR-5 = test system: OVCAR-5
# ACHN = test system: ACHN
# SK-MEL-28 = test system: SK-MEL-28
# SW-620 = test system: SW-620
# MOLT-4 = test system: MOLT-4
# M14 = test system: M14
# LOX IMVI = test system: LOX IMVI
# CAKI-1 = test system: CAKI-1
# DU-145 = test system: DU-145
# T47D = test system: T47D
# RPMI-8226 = test system: RPMI-8226
# KM12 = test system: KM12
# HCT-116 = test system: HCT-116
# COLO 205 = test system: COLO 205
# PC-3 = test system: PC-3
# NCI/ADR-RES = test system: NCI/ADR-RES
# HOP-62 = test system: HOP-62
# SNB-75 = test system: SNB-75
# RXF 393 = test system: RXF 393
# SF-295 = test system: SF-295
# UO-31 = test system: UO-31
# K562 = test system: K562
# U-251 = test system: U-251
# OVCAR-3 = test system: OVCAR-3
# UACC-62 = test system: UACC-62
# TK-10 = test system: TK-10
# EKVX = test system: EKVX
# SK-OV-3 = test system: SK-OV-3
# SNB-19 = test system: SNB-19
# MDA-N = test system: MDA-N
# HCC 2998 = test system: HCC 2998
# HOP-92 = test system: HOP-92
structure (smiles),measurement,setting,value
O=[N+]([O-])c1cc(Cl)c(Cl)cc1[N+](=O)[O-],GI50,HT-29,4.16 µM (inactive)
same,GI50,NCI-H522,1.87 µM (inactive)
same,GI50,MCF7,2.06 µM (inactive)
same,GI50,HCT-15,2.85 µM
same,GI50,Malme-3M,2.74 µM (inactive)
same,GI50,A549,2.29 µM (inactive)
same,GI50,SK-MEL-5,14.6 µM (inactive)
same,GI50,NCI-H23,2.14 µM (inactive)
same,GI50,OVCAR-8,2.91 µM (inactive)
same,GI50,OVCAR-4,2.48 µM (inactive)
same,GI50,SF-539,2.13 µM (inactive)
same,GI50,A498,18.5 µM (inactive)
same,GI50,MDA-MB-231,2.25 µM (inactive)
same,GI50,SR,1.89 µM (inactive)
same,GI50,IGROV-1,1.98 µM (inactive)
same,GI50,CCRF-CEM,5.94 µM (inactive)
same,GI50,NCI-H226,3.89 µM (inactive)
same,GI50,NCI-H460,3.24 µM (inactive)
same,GI50,HL-60,1.9 µM (inactive)
same,GI50,MDA-MB-435,4.07 µM (inactive)
same,GI50,SN12C,1.91 µM (inactive)
same,GI50,UACC-257,2.15 µM (inactive)
same,GI50,Hs-578T,13.9 µM (inactive)
same,GI50,SF-268,1.81 µM (inactive)
same,GI50,786-0,2.8 µM (inactive)
same,GI50,SK-MEL-2,2.44 µM (inactive)
same,GI50,OVCAR-5,2.51 µM (inactive)
same,GI50,ACHN,2.56 µM (inactive)
same,GI50,SK-MEL-28,2.64 µM (inactive)
same,GI50,SW-620,2.91 µM (inactive)
same,GI50,MOLT-4,0.212 µM (active)
same,GI50,M14,3.51 µM (inactive)
same,GI50,LOX IMVI,2.37 µM (inactive)
same,GI50,CAKI-1,2.34 µM (inactive)
same,GI50,DU-145,2.07 µM (inactive)
same,GI50,T47D,3.24 µM (inactive)
same,GI50,RPMI-8226,4.17 µM (inactive)
same,GI50,KM12,3.27 µM (inactive)
same,GI50,HCT-116,20.1 µM (inactive)
same,GI50,COLO 205,5.77 µM (inactive)
same,GI50,PC-3,1.74 µM (inactive)
same,GI50,NCI/ADR-RES,4.18 µM (inactive)
same,GI50,HOP-62,2.74 µM (inactive)
same,GI50,SNB-75,3.6 µM (inactive)
same,GI50,RXF 393,1.63 µM (inactive)
same,GI50,SF-295,3.08 µM (inactive)
same,GI50,UO-31,1.93 µM (inactive)
same,GI50,K562,2.43 µM (inactive)
same,GI50,U-251,2 µM (inactive)
same,GI50,OVCAR-3,1.48 µM (inactive)
same,GI50,UACC-62,2.23 µM (inactive)
same,GI50,TK-10,3.55 µM (inactive)
same,GI50,EKVX,2.83 µM (inactive)
NS(=O)(=O)c1ccc(/C=C/c2ccc(F)cc2)cc1,GI50,MCF7,23.9 µM (inactive)
same,GI50,Malme-3M,40.5 µM (inactive)
same,GI50,A498,29.4 µM (inactive)
same,GI50,MDA-MB-231,9.53 µM (inactive)
same,GI50,SK-OV-3,23.8 µM (inactive)
same,GI50,NCI-H460,23.5 µM (inactive)
same,GI50,SN12C,25.8 µM (inactive)
same,GI50,UACC-257,> 100 µM (inactive)
same,GI50,SNB-19,33.9 µM (inactive)
same,GI50,MDA-N,43.5 µM (inactive)
same,GI50,786-0,21.2 µM (inactive)
same,GI50,SK-MEL-2,20.7 µM (inactive)
same,GI50,OVCAR-5,> 100 µM (inactive)
same,GI50,SK-MEL-28,47.4 µM (inactive)
same,GI50,SW-620,17.1 µM (inactive)
same,GI50,M14,79.4 µM (inactive)
same,GI50,HCC 2998,51.8 µM (inactive)
same,GI50,DU-145,50.1 µM (inactive)
same,GI50,T47D,14.9 µM (inactive)
same,GI50,HCT-116,16.9 µM (inactive)
same,GI50,COLO 205,24.8 µM (inactive)
same,GI50,PC-3,39 µM (inactive)
same,GI50,NCI/ADR-RES,26.3 µM (inactive)
same,GI50,HOP-62,34 µM (inactive)
same,GI50,SNB-75,31.6 µM (inactive)
same,GI50,RXF 393,15.6 µM (inactive)
same,GI50,SF-295,28.9 µM (inactive)
same,GI50,UO-31,20.7 µM (inactive)
same,GI50,OVCAR-3,16.7 µM (inactive)
same,GI50,TK-10,21.3 µM (inactive)
same,GI50,EKVX,47.3 µM (inactive)
Cc1ccc(C(=O)/C=C(\O)C(=O)NC23CC4CC(CC(C4)C2)C3)cc1,GI50,HT-29,> 10 µM (inactive)
same,GI50,MCF7,7.41 µM (inactive)
same,GI50,HCT-15,6.27 µM
same,GI50,Malme-3M,> 10 µM (inactive)
same,GI50,A549,> 10 µM (inactive)
same,GI50,SK-MEL-5,> 10 µM (inactive)
same,GI50,NCI-H23,5.43 µM (inactive)
same,GI50,OVCAR-8,> 10 µM (inactive)
same,GI50,OVCAR-4,> 10 µM (inactive)
same,GI50,MDA-MB-231,8.71 µM (inactive)
same,GI50,SR,3.62 µM (inactive)
same,GI50,SK-OV-3,> 10 µM (inactive)
same,GI50,CCRF-CEM,5.92 µM (inactive)
same,GI50,HL-60,4.25 µM (inactive)
same,GI50,MDA-MB-435,> 10 µM (inactive)
same,GI50,SN12C,7.59 µM (inactive)
same,GI50,UACC-257,> 10 µM (inactive)
same,GI50,SF-268,> 10 µM (inactive)
same,GI50,HOP-92,> 10 µM (inactive)
same,GI50,MDA-N,> 10 µM (inactive)
same,GI50,786-0,> 10 µM (inactive)
same,GI50,SK-MEL-28,> 10 µM (inactive)
same,GI50,SW-620,> 10 µM (inactive)
same,GI50,MOLT-4,3.86 µM (inactive)
same,GI50,M14,> 10 µM (inactive)
same,GI50,HCC 2998,> 10 µM (inactive)
same,GI50,LOX IMVI,0.851 µM (active)
same,GI50,CAKI-1,> 10 µM (inactive)
same,GI50,DU-145,9.95 µM (inactive)
same,GI50,T47D,> 10 µM (inactive)
same,GI50,RPMI-8226,8.61 µM (inactive)
same,GI50,KM12,> 10 µM (inactive)
same,GI50,COLO 205,> 10 µM (inactive)
same,GI50,PC-3,9.79 µM (inactive)
same,GI50,HOP-62,6.7 µM (inactive)
same,GI50,SNB-75,> 10 µM (inactive)
same,GI50,RXF 393,> 10 µM (inactive)
same,GI50,SF-295,5.86 µM (inactive)
same,GI50,K562,5.64 µM (inactive)
same,GI50,UACC-62,9.02 µM (inactive)
same,GI50,TK-10,> 10 µM (inactive)
same,GI50,EKVX,> 10 µM (inactive)
